# Measured values reported in patent US6203817A (priority 1998, dated 2001).
# Tests used:
# [1] = test system: skin of hairless guinea pigs; assay: Paroxetine gels skin irritation at equivalent flux; type: in vivo, hairless guinea pig; conditions: FIG. 8
# Excerpt: (§1) Skin sites on hairless guinea pigs were lightly washed.
# All paroxetine gels contained paroxetine base, 40% ethanol, 35% propylene glycol, water, and 5% HPMC. Placebo gels were identical with water replacing the paroxetine. Paroxetine acetate gels contained paroxetine base, acetic acid, water, and 2% HEC. […] All paroxetine gels contained approximately 28 μCi ^3 H paroxetine per ml.
# [2] = test system: skin of hairless guinea pigs; assay: Urinary excretion kinetics / skin depot of fluoxetine; type: in vivo, hairless guinea pig
# Excerpt: as §1
# [3] = cited from earlier work
# [4] = Critical micelle concentration (CMC) in water; type: physicochemical
# Excerpt: According to this embodiment, the salt form is selected by measuring its CMC in water by methods known in the art, for example, by the use of a surface tensiometer. […] The CMC provides a measure of the surface activity of the particular drug salt.
structure (smiles),measurement,setting,value
Fc1ccc([C@@H]2CCNC[C@H]2COc2ccc3c(c2)OCO3)cc1 [paroxetine acetate],irritation vs paroxetine base gels at equivalent flux,[1],reduced
"CNCCC(Oc1ccc(C(F)(F)F)cc1)c1ccccc1 (centres unmarked) [fluoxetine base, fluoxetine]",skin depot (urinary excretion),[2]; fluoxetine base,a skin depot is observed
same,pKa,[3],9.7
CNCCC(Oc1ccc(C(F)(F)F)cc1)c1ccccc1 (centres unmarked) [fluoxetine acetate],skin depot (urinary excretion),[2]; acidified with excess acetic acid to pH 5,the skin depot is eliminated
same,kinetics of elimination (urinary excretion),"[2]; acidified with excess acetic acid to pH 5, compared with intravenous administration",close to that observed following intravenous administration of the drug
same,skin depot (urinary excretion),"[2]; fluoxetine acetate, pH 6.5",the skin depot is reduced but is still present
same,CMC,[4],0.05 M
CN(C)CCCN1c2ccccc2Sc2ccc(Cl)cc21 [chlorpromazine acetate],CMC,[4],0.02 M
